Data on 22 compounds can be found in patent US12344610B2, “APOL1 inhibitors and methods of use” (Maze Therapeutics, Inc., priority 2022, dated 2025).

SMILES strings stand for the structures.

For test [1], the system named is HEK293 clonal cell line overexpressing APOL1 G1. As to the kind of experiment: APOL1 G1 HEK293 cell rescue assay (Example B3). Format: cell-based. The note with it: Homo sapiens, HEK293, HEK293 clonal line overexpressing APOL1 G1; geometric mean of at least 2 runs; † = single run; ¥ = concentration at 50% rescue estimated (no sigmoidal curve). The procedure, abridged:
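Rescue of cell death caused by APOL1 G1 overexpression was measured in a clonal HEK293 line. Compounds were tested in duplicate on one plate, and EC50s were geometric means across at least two runs on different days. Some values are estimated 50%-rescue concentrations where curve fitting failed.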

Test [2] has as its system Trypanosoma brucei Lister 427 VSG221 with APOL1 G1 recombinant protein. Kind of test: APOL1 G1 trypanosome cell rescue assay (Example B5). Format: cell-based. As to conditions: Trypanosoma brucei, 20 h, read-out: APOL1 G1 Trypanosome Rescue EC50, Trypanosoma brucei Lister 427 VSG221 with APOL1 G1 recombinant protein, 20 hours, CellTiter-Glo; geometric mean of at least 2 assay runs; † = single assay run. The procedure, abridged: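 Viability read by CellTiter-Glo luminescence after 20 h co-incubation (37° C, 5% CO2) of 250 trypanosomes/well in modified HMI-9 with test compound (duplicate 11-point, 2-fold dilutions, 0.4% DMSO) and APOL1 protein, […]. Protein: mature residues 28-398, E. coli inclusion-body refolded, tag cleaved, in DDM.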
(ATP-based viability assays read luminescence as a measure of living cells.)

On to `CN(c1ccc(OCCN2CCC3(CC2)C(=O)Nc2ccc(C#N)cc23)cc1)S(C)(=O)=O` [Compound 75, N-[4-(2-{5-cyano-2-oxo-1,2-dihydrospiro[indole-3,4′-piperidin]-1′-yl}ethoxy)phenyl]-N-methylmethanesulfonamide], for which the EC50 – broadly, the concentration giving half of the maximal effect – in test [1] is 0.406 µM; in test [2], 0.578 µM.
Taken in the same sequence, the figures for `CN(c1ccc(OCCN2CCC3(CC2)C(=O)Nc2ccc(Cl)cc23)cc1)S(C)(=O)=O` [Compound 76, N-[4-(2-{5-chloro-2-oxo-1,2-dihydrospiro[indole-3,4′-piperidin]-1′-yl}ethoxy)phenyl]-N-methylmethanesulfonamide] were 0.19 µM and 0.126 µM.
On to `CS(C)(=O)=Nc1ccc(OCCN2CCC3(CC2)C(=O)Nc2ccc(C#N)cc23)cc1` [Compound 77, 1′-[2-(4-{[dimethyl(oxo)-λ^6-sulfanylidene]amino}phenoxy)ethyl]-2-oxo-1,2-dihydrospiro[indole-3,4′-piperidine]-5-carbonitrile], for which the EC50 in test [1] is > 4.76 µM; in test [2] it was > 4 µM.
The corresponding values for `CN1C(=O)CCc2cc(OCCN3CCC4(CC3)C(=O)Nc3ccc(Cl)cc34)cnc21` [Compound 78, 5-chloro-1′-{2-[(8-methyl-7-oxo-5,6,7,8-tetrahydro-1,8-naphthyridin-3-yl)oxy]ethyl}-1,2-dihydrospiro[indole-3,4′-piperidin]-2-one] are 0.128 µM and 0.0976 µM.
For `CN1C(=O)CCc2cc(OCCN3CCC4(CC3)C(=O)Nc3ccc(C#N)cc34)cnc21` [Compound 79, 1′-{2-[(8-methyl-7-oxo-5,6,7,8-tetrahydro-1,8-naphthyridin-3-yl)oxy]ethyl}-2-oxo-1,2-dihydrospiro[indole-3,4′-piperidine]-5-carbonitrile], the results for the EC50 in test [1] and in test [2] were 0.533 µM and 0.952 µM, respectively.
The corresponding values for `CC(C)[C@]1(O)C[C@@H](N2C(=O)CCc3cc(OCCN4CCC5(CC4)C(=O)Nc4ccc(Cl)cc45)cnc32)C1` [Compound 317, 5-chloro-1′-[2-({7-oxo-8-[(cis)-3-hydroxy-3-(propan-2-yl)cyclobutyl]-5,6,7,8-tetrahydro-1,8-naphthyridin-3-yl}oxy)ethyl]-1,2-dihydrospiro[indole-3,4′-piperidin]-2-one] are 0.0456 µM and 0.0335 µM.
Turning to `C[C@]1(O)C[C@@H](n2c(=O)ccc3cc(OCCN4CCC5(CC4)C(=O)Nc4ccc(Cl)cc45)cnc32)C1` [Compound 323, 5-chloro-1′-[2-({7-oxo-8-[(cis)-3-hydroxy-3-methylcyclobutyl]-7,8-dihydro-1,8-naphthyridin-3-yl}oxy)ethyl]-1,2-dihydrospiro[indole-3,4′-piperidin]-2-one], the EC50 was 0.0364 µM in test [1] and 0.0359 µM in test [2].
Turning to `C[C@]1(O)C[C@@H](n2c(=O)ccc3cc(OCCN4CCC5(CC4)C(=O)Nc4ccc(C(F)F)cc45)cnc32)C1` [Compound 324, 5-(difluoromethyl)-1′-[2-({7-oxo-8-[(cis)-3-hydroxy-3-methylcyclobutyl]-7,8-dihydro-1,8-naphthyridin-3-yl}oxy)ethyl]-1,2-dihydrospiro[indole-3,4′-piperidin]-2-one], the EC50 is 0.0408 µM in test [1] and 0.035 µM in test [2].
The corresponding values for `O=C1CCc2cc(OCCN3CCC4(CC3)C(=O)Nc3ccc(Cl)cc34)cnc2N1C1CC(CO)C1` (centres unmarked) [Compound 326, 5-chloro-1′-[2-({8-[3-(hydroxymethyl)cyclobutyl]-7-oxo-5,6,7,8-tetrahydro-1,8-naphthyridin-3-yl}oxy)ethyl]-1,2-dihydrospiro[indole-3,4′-piperidin]-2-one] are 0.104 µM and 0.0944 µM.
Regarding `CC1(O)CC(CN2C(=O)CCc3cc(OCCN4CCC5(CC4)C(=O)Nc4ccc(Cl)cc45)cnc32)C1` (centres unmarked) [Compound 327, 5-chloro-1′-[2-({8-[(3-hydroxy-3-methylcyclobutyl)methyl]-7-oxo-5,6,7,8-tetrahydro-1,8-naphthyridin-3-yl}oxy)ethyl]-1,2-dihydrospiro[indole-3,4′-piperidin]-2-one], the EC50 in test [1] is 0.0844 µM; in test [2], 0.0466 µM.
Regarding `C[C@]1(O)C[C@@H](n2c(=O)ccc3cc(OCCN4CCC5(CC4)C(=O)Nc4ccc(OC(F)F)cc45)cnc32)C1` [Compound 328, 5-(difluoromethoxy)-1′-[2-({7-oxo-8-[(cis)-3-hydroxy-3-methylcyclobutyl]-7,8-dihydro-1,8-naphthyridin-3-yl}oxy)ethyl]-1,2-dihydrospiro[indole-3,4′-piperidin]-2-one], the EC50 in test [1] was 0.0982 µM; in test [2] it was 0.0921 µM.
Taken in the same sequence, the figures for `O=C1Nc2ccc(Cl)cc2C12CCN(CCOc1cnc(C3(CO)CC3)nc1)CC2` [Compound 333, 5-chloro-1′-[2-({2-[1-(hydroxymethyl)cyclopropyl]pyrimidin-5-yl}oxy)ethyl]-1,2-dihydrospiro[indole-3,4′-piperidin]-2-one] were 0.0986 µM and 0.205 µM.
As to `CP(C)(=O)C1(c2ccc(OCCN3CCC4(CC3)C(=O)Nc3ccc(Cl)cc34)cc2)CC1` [Compound 343, 5-chloro-1′-(2-{4-[1-(dimethylphosphoryl)cyclopropyl]phenoxy}ethyl)-1,2-dihydrospiro[indole-3,4′-piperidin]-2-one], the EC50 is 0.431 µM in test [1] and 0.203 µM in test [2].
Turning to `C[C@]1(O)C[C@@H](N2C(=O)Cc3cc(OCCN4CCC5(CC4)C(=O)Nc4ccc(Cl)cc45)cnc32)C1` [Compound 345, 5-chloro-1′-[2-({2-oxo-1-[(cis)-3-hydroxy-3-methylcyclobutyl]-1H,2H,3H-pyrrolo[2,3-b]pyridin-5-yl}oxy)ethyl]-1,2-dihydrospiro[indole-3,4′-piperidin]-2-one], the figures for the EC50 in test [1] and in test [2] were 0.079 µM and 0.242 µM, respectively.
In the case of `C[C@]1(O)C[C@@H](N2C(=O)Cc3cc(OCCN4CCC5(CC4)C(=O)Nc4ccc(C(F)F)cc45)cnc32)C1` [Compound 346, 5-(difluoromethyl)-1′-[2-({2-oxo-1-[(cis)-3-hydroxy-3-methylcyclobutyl]-1H,2H,3H-pyrrolo[2,3-b]pyridin-5-yl]oxy)ethyl]-1,2-dihydrospiro[indole-3,4′-piperidin]-2-one], the EC50 in test [1] is 0.0837 µM; in test [2], 0.116 µM.
Taken in the same sequence, the figures for `C[C@]1(O)C[C@@H](n2ccc3cc(OCCN4CCC5(CC4)C(=O)Nc4ccc(Cl)cc45)cnc32)C1` [Compound 349, 5-chloro-1′-[2-({1-[(cis)-3-hydroxy-3-methylcyclobutyl]-1H-pyrrolo[2,3-b]pyridin-5-yl}oxy)ethyl]-1,2-dihydrospiro[indole-3,4′-piperidin]-2-one] were 0.0735 µM and 0.0898 µM.
On to `C[C@]1(O)C[C@@H](n2cnc3cc(OCCN4CCC5(CC4)C(=O)Nc4ccc(Cl)cc45)cc(C(F)(F)F)c32)C1` [Compound 352, 5-chloro-1′-[2-({1-[(cis)-3-hydroxy-3-methylcyclobutyl]-7-(trifluoromethyl)-1H-1,3-benzodiazol-5-yl}oxy)ethyl]-1,2-dihydrospiro[indole-3,4′-piperidin]-2-one], for which the EC50 in test [1] was 0.00995 µM; in test [2], 0.0188 µM.
With `C[C@]1(O)C[C@@H](N2C(=O)NCc3cc(OCCN4CCC5(CC4)C(=O)Nc4ccc(Cl)cc45)cnc32)C1` [Compound 356, 5-chloro-1′-[2-({2-oxo-1-[(cis)-3-hydroxy-3-methylcyclobutyl]-1H,2H,3H,4H-pyrido[2,3-d]pyrimidin-6-yl}oxy)ethyl]-1,2-dihydrospiro[indole-3,4′-piperidin]-2-one], the EC50 in test [1] was 0.162 µM; in test [2], 0.113 µM.
Turning to `CC(C)(O)c1ncc(OCCN2CCC3(CC2)C(=O)Nc2ccc(Cl)cc23)cc1C(F)(F)F` [Compound 371, 5-chloro-1′-(2-{[6-(2-hydroxypropan-2-yl)-5-(trifluoromethyl)pyridin-3-yl]oxy}ethyl)-1,2-dihydrospiro[indole-3,4′-piperidin]-2-one], the figures for the EC50 in test [1] and in test [2] were 0.0288 µM and 0.0219 µM, respectively.
`CCC1(O)CN(c2ncc(OCCN3CCC4(CC3)C(=O)Nc3ccc(Cl)cc34)cn2)C1` [Compound 397, 5-chloro-1′-(2-{[2-(3-ethyl-3-hydroxyazetidin-1-yl)pyrinlidin-5-yl]oxy}ethyl)-1,2-dihydrospiro[indole-3,4′-piperidin]-2-one]: the EC50 in test [1] was 0.105 µM; in test [2] it was 0.269 µM.
Turning to `C[C@]1(O)C[C@@H](n2ccc3cc(OCCN4CCC5(CC4)C(=O)Nc4ccc(C#N)cc45)cnc32)C1` [Compound 410, 2-oxo-1′-[2-({1-[(cis)-3-hydroxy-3-methylcyclobutyl]-1H-pyrrolo[2,3-b]pyridin-5-yl}oxy)ethyl]-1,2-dihydrospiro[indole-3,4′-piperidine]-5-carbonitrile], the EC50 in test [1] is 0.0933 µM; in test [2] it was 0.269 µM.
Turning to `[2H]C([2H])(Oc1cnc2c(c1)CCC(=O)N2[C@H]1C[C@@](C)(O)C1)C([2H])([2H])N1CCC2(CC1)C(=O)Nc1ccc(Cl)cc12` [Compound 426, 5-chloro-1′-[2-({7-oxo-8-[(cis)-3-hydroxy-3-methylcyclobutyl]-5,6,7,8-tetrahydro-1,8-naphthyridin-3-yl}oxy)(1,1,2,2-^2H4)ethyl]-1,2-dihydrospiro[indole-3,4′-piperidin]-2-one], the EC50 in test [1] is 0.0803 µM; in test [2], 0.0888 µM.
